± gives the expanded uncertainty stated by the source.
Test: xn = mol fraction of the nth substance listed
Conditions: Liquid

COCCOCCOCCOC [2,5,8,11-tetraoxadodecane] + FCC(F)(F)F
Conditions	mass density [kg/m3]
283.27 K, 1086 kPa, x2 = 0.9485	1245.33 ± 0.38
283.27 K, 2000 kPa, x2 = 0.9485	1248.44 ± 0.39
283.27 K, 3016 kPa, x2 = 0.9485	1251.83 ± 0.39
283.27 K, 4003 kPa, x2 = 0.9485	1255.03 ± 0.4
283.27 K, 5009 kPa, x2 = 0.9485	1258.22 ± 0.4
283.27 K, 6019 kPa, x2 = 0.9485	1261.33 ± 0.41
283.28 K, 1070 kPa, x2 = 0.9798	1255.94 ± 0.37
283.28 K, 1986 kPa, x2 = 0.9798	1259.56 ± 0.37
283.28 K, 2984 kPa, x2 = 0.9798	1263.39 ± 0.38
283.28 K, 4004 kPa, x2 = 0.9798	1267.2 ± 0.38
283.28 K, 4996 kPa, x2 = 0.9798	1270.8 ± 0.38
283.28 K, 5989 kPa, x2 = 0.9798	1274.3 ± 0.39
283.29 K, 1047 kPa, x2 = 0.9655	1251.56 ± 0.38
283.29 K, 1992 kPa, x2 = 0.9655	1255.06 ± 0.38
283.29 K, 2996 kPa, x2 = 0.9655	1258.69 ± 0.39
283.29 K, 3988 kPa, x2 = 0.9655	1262.16 ± 0.39
283.29 K, 4999 kPa, x2 = 0.9655	1265.62 ± 0.39
283.29 K, 5987 kPa, x2 = 0.9655	1268.91 ± 0.4
293.3 K, 1086 kPa, x2 = 0.9485	1215.38 ± 0.37
293.3 K, 2016 kPa, x2 = 0.9485	1219.06 ± 0.37
293.3 K, 2998 kPa, x2 = 0.9485	1222.84 ± 0.37
293.3 K, 3985 kPa, x2 = 0.9485	1226.51 ± 0.38
293.3 K, 5000 kPa, x2 = 0.9485	1230.18 ± 0.38
293.3 K, 6018 kPa, x2 = 0.9485	1233.75 ± 0.39
293.31 K, 1086 kPa, x2 = 0.9798	1222.61 ± 0.34
293.31 K, 2003 kPa, x2 = 0.9798	1226.87 ± 0.35
293.31 K, 2985 kPa, x2 = 0.9798	1231.29 ± 0.35
293.31 K, 4010 kPa, x2 = 0.9798	1235.72 ± 0.36
293.31 K, 4992 kPa, x2 = 0.9798	1239.84 ± 0.36
293.31 K, 6009 kPa, x2 = 0.9798	1243.96 ± 0.36
293.32 K, 1047 kPa, x2 = 0.9655	1219.81 ± 0.36
293.32 K, 2002 kPa, x2 = 0.9655	1223.94 ± 0.36
293.32 K, 2997 kPa, x2 = 0.9655	1228.11 ± 0.36
293.32 K, 3984 kPa, x2 = 0.9655	1232.11 ± 0.37
293.32 K, 5001 kPa, x2 = 0.9655	1236.1 ± 0.37
293.32 K, 5994 kPa, x2 = 0.9655	1239.88 ± 0.38
303.33 K, 1176 kPa, x2 = 0.9798	1187.73 ± 0.34
303.33 K, 1189 kPa, x2 = 0.9485	1184.28 ± 0.34
303.33 K, 1998 kPa, x2 = 0.9485	1188.03 ± 0.35
303.33 K, 2990 kPa, x2 = 0.9485	1192.49 ± 0.36
303.33 K, 3984 kPa, x2 = 0.9485	1196.79 ± 0.36
303.33 K, 5011 kPa, x2 = 0.9485	1201.05 ± 0.36
303.33 K, 5992 kPa, x2 = 0.9485	1205.02 ± 0.37
303.34 K, 2006 kPa, x2 = 0.9798	1192.33 ± 0.34
303.34 K, 3006 kPa, x2 = 0.9798	1197.65 ± 0.34
303.34 K, 4000 kPa, x2 = 0.9798	1202.73 ± 0.34
303.34 K, 4990 kPa, x2 = 0.9798	1207.56 ± 0.35
303.34 K, 6008 kPa, x2 = 0.9798	1212.35 ± 0.35
303.35 K, 1189 kPa, x2 = 0.9655	1186.88 ± 0.34
303.35 K, 2013 kPa, x2 = 0.9655	1191.11 ± 0.35
303.35 K, 2992 kPa, x2 = 0.9655	1195.95 ± 0.35
303.35 K, 4008 kPa, x2 = 0.9655	1200.76 ± 0.35
303.35 K, 4992 kPa, x2 = 0.9655	1205.25 ± 0.36
303.35 K, 5987 kPa, x2 = 0.9655	1209.62 ± 0.36
313.35 K, 1434 kPa, x2 = 0.9485	1152.06 ± 0.34
313.35 K, 1434 kPa, x2 = 0.9798	1151.46 ± 0.34
313.35 K, 2004 kPa, x2 = 0.9798	1155.29 ± 0.35
313.35 K, 2014 kPa, x2 = 0.9485	1155.26 ± 0.34
313.35 K, 2982 kPa, x2 = 0.9798	1161.59 ± 0.34
313.35 K, 2990 kPa, x2 = 0.9485	1160.47 ± 0.34
313.35 K, 3990 kPa, x2 = 0.9485	1165.56 ± 0.35
313.35 K, 4985 kPa, x2 = 0.9485	1170.41 ± 0.35
313.35 K, 4986 kPa, x2 = 0.9798	1173.51 ± 0.34
313.35 K, 5997 kPa, x2 = 0.9485	1175.14 ± 0.35
313.36 K, 1436 kPa, x2 = 0.9655	1152.44 ± 0.34
313.36 K, 3010 kPa, x2 = 0.9655	1161.91 ± 0.34
313.36 K, 3986 kPa, x2 = 0.9798	1167.71 ± 0.34
313.36 K, 5983 kPa, x2 = 0.9798	1179.03 ± 0.34
313.37 K, 2008 kPa, x2 = 0.9655	1155.97 ± 0.34
313.37 K, 4000 kPa, x2 = 0.9655	1167.49 ± 0.34
313.37 K, 5010 kPa, x2 = 0.9655	1172.9 ± 0.34
313.37 K, 5984 kPa, x2 = 0.9655	1177.91 ± 0.35
323.39 K, 1731 kPa, x2 = 0.9798	1112.96 ± 0.36
323.39 K, 1737 kPa, x2 = 0.9485	1118.26 ± 0.35
323.39 K, 1989 kPa, x2 = 0.9798	1115.09 ± 0.36
323.39 K, 1994 kPa, x2 = 0.9485	1119.99 ± 0.34
323.39 K, 3007 kPa, x2 = 0.9485	1126.53 ± 0.34
323.39 K, 3987 kPa, x2 = 0.9485	1132.49 ± 0.34
323.39 K, 4990 kPa, x2 = 0.9485	1138.29 ± 0.34
323.39 K, 5982 kPa, x2 = 0.9485	1143.72 ± 0.34
323.4 K, 3001 kPa, x2 = 0.9798	1123.14 ± 0.36
323.4 K, 4006 kPa, x2 = 0.9798	1130.6 ± 0.35
323.4 K, 4997 kPa, x2 = 0.9798	1137.51 ± 0.35
323.4 K, 5982 kPa, x2 = 0.9798	1144 ± 0.34
323.41 K, 1737 kPa, x2 = 0.9655	1116.04 ± 0.35
323.41 K, 1998 kPa, x2 = 0.9655	1118.03 ± 0.35
323.41 K, 3002 kPa, x2 = 0.9655	1125.33 ± 0.35
323.41 K, 4001 kPa, x2 = 0.9655	1132.15 ± 0.34
323.41 K, 4985 kPa, x2 = 0.9655	1138.48 ± 0.34
323.41 K, 6012 kPa, x2 = 0.9655	1144.72 ± 0.34

Reference: the NIST ThermoML archive (doi:10.1021/je050503q)
